Measured values as given in PMC10252891 (Cells, 2023).
Converted amounts (≈) assume the structure as drawn. “And” between values parts separate entries of the source, which are not always exact repeats. Equal values may be shown once.

What was measured:
[1] = system: PTZ-induced epileptiform brain discharges in zebrafish larvae; design: method as in PMID 34768849; settings: pimpinellin; cited from earlier work
[2] = cited from earlier work
[3] = system: PTZ-induced seizure-like movements in zebrafish larvae; test: PTZ-induced seizure-like locomotor tracking in zebrafish larvae; assay type: in vivo, Danio rerio; settings: for decrease of actinteg values of PTZ-treated larvae: 1 h pre-immersion; for decrease of actinteg values of PTZ-treated larvae / decrease of locomotor activity of PTZ-treated larvae: 20 mM PTZ, vs vehicle-PTZ group
Description: For immersion 6 days post-fertilization (dpf) and for all measurements, 7-dpf larvae were used. The zebrafish experiments described here were approved by the Local Ethics Committee in Lublin (license no: 109/2018).
All compounds were dissolved in dimethyl sulfoxide (DMSO) and diluted in an embryo medium to achieve a final DMSO concentration of 1% w/v. Embryo medium prepared with DMSO to a final concentration of 1% w/v served as vehicle control (VHC). PTZ (Sigma-Aldrich, Poznań, Poland) was dissolved at a concentration of 40 mM in the embryo medium. The control anticonvulsant agent used in this study was VPN (Sigma-Aldrich, Poznań, Poland).
(§1) 100 µL of embryo medium or 100 µL of a 40 mM PTZ solution was added to obtain a final concentration of 20 mM of PTZ in each well [30]. Larvae were habituated for 5 min in a dark chamber of an automated tracking device (ZebraBox system; Viewpoint, Lyon, France). Then, the locomotor activity without proconvulsant treatment was measured in the dark. The total locomotor activity was quantified using ZebraLab software (Viewpoint, Lyon, France) and was expressed in “actinteg”’ units, which is the sum of all pixel changes detected during the period defined for the experiment. After the evaluation of preincubated larvae movements, PTZ solution was added, and the locomotor behavior was measured for 30 min for each condition. All tracking experiments were performed at least in triplicate.

zebrafish larvae = test: Locomotor activity of zebrafish larvae without proconvulsant treatment; assay type: in vivo, Danio rerio
Description: as §1

[4] = LC-MS/MS quantification of whole-body uptake in immersed zebrafish larvae
Description: After immersion larvae were plated in 1% BSA for 15 s and washed thoroughly by shaking to remove all compounds from the larvae surface. […] For quantification, six larvae were pooled before homogenization. Three experiments were carried out in independent days.
These were homogenized with the Ultrasonic Processor UP50H (Hielscher): 1 cycle—60% amplitude. The run consisted of two cycles of 15 s with a rest of 50 s in ice for each sample. […] To 100 µL of homogenate 200 µL of the internal standard (IS) Rolipram (Sigma Aldrich, Buchs, Switzerland) (20 ng/mL) for the positive MS experiment, and VPA d-6 (Sigma Aldrich, Buchs, Switzerland) (50 µg/mL) for the negative MS experiment were added. Samples were vortexed for 10 s and then centrifuged at 12,000 rpm for 10 min at 4 °C. After centrifugation, 150 µL of supernatant was transferred into LC-MS vials already containing 120 µL of MilliQ water. Then, 10 µL was injected into the LC-MS/MS system.
A hybrid triple quadrupole 4000 QTRAP mass spectrometer (AB Sciex Concord, ON, Canada) was used with a Shimadzu UFLC (Shimadzu Corporation, Kyoto, Japan) with a cooled auto-sampler. The sample temperature was maintained at 4 °C in the auto-sampler prior to analysis. The LC column was Synergi 4 µm Fusion-RP 80Å C18 50 × 2 mm, Phenomenex, maintained at 45 °C. The system was operated first in positive and after in negative mode with the same elution mobile phases and gradient method. Mobile phases were as follows: water with 0.1% formic acid (solvent A) and methanol with 0.1% formic acid (solvent B). […] The flow rate was 0.80 mL/min. Peaks were integrated, and the analyst software version 1.6.2 (AB Sciex Concord, ON, Canada) was used for quantification. […] Negative mode: Valproic acid m/z 143→143, (IS: Valproic Acid-d6 149→149).

[5] = mammals; cited from earlier work
[6] = treated humans; cited from earlier work
[7] = system: PTZ-induced epileptiform brain discharges in zebrafish larvae; test: Local field potential (LFP) recordings, power spectral density (PSD) analysis, PTZ-induced seizure model; assay type: in vivo, Danio rerio; settings: PTX 20 µM, 18 h immersion, mean PSD over the 1–50 Hz region, 20 mM PTZ
Description: Non-invasive local field potential (LFP) was recorded from the optic tectum of zebrafish as described before. Before the recording, the treated larvae were immersed for 15 min in 100 µL of VHC or 20 mM PTZ. After immersion, a larva was immobilized in 2% low melting agarose (Invitogen, Waltham, MA, USA) and the signal electrode (Hilgenberg, Germany) was placed on the surface of the head above the optic tectum. The differential signal between the recording electrode and the reference electrode was amplified 10,000 times by EXT-02F/2 extracellular amplifier (NPI Electronic, Tamm, Germany), band pass filtered at 3–300 Hz and digitized at 2 kHz via a PCI-6251 interface (National Instruments, Austin, Texas, USA) with WinEDR (John Dempster, University of Strathclyde, Glasgow, Scotland). A HumBug noise eliminator (Quest Scientific, Hofheim, Germany) was used to remove 50–60 Hz noise. The recordings and the quantification of the signal from epileptiform brain discharges by Welch’s power spectral density (PSD) analysis were performed as described before.

[8] = system: zebrafish larvae whole-body metabolites; test: Amino acid and neurotransmitter quantification (targeted metabolomics) in zebrafish larvae whole-body; assay type: in vivo, Danio rerio; settings: PTX 20 μM, 18 h immersion
Description: For quantification, six larvae were pooled before homogenization. Three experiments were carried out in independent days.
The samples were prepared as described before. To 80 µL of the homogenate 320 µL of MeOH was added to precipitate proteins at a volume dilution […]. After centrifugation at max speed (20,000 rpm) at 4 °C for 10 min, 50 µL were diluted with 200 µL of 1:1 MeOH:1 mM EDTA in Water (Dil 1:4). Samples were centrifuged at max speed at 4 °C for 10 min, and 50 µL were taken into the LC-MS insert vials, 5 µL of the internal standard mix (ethanolamine_d4, dopamine_d4, methionine_d3, serine_d3, lysine_d4 glycine_d5, and acetylcholine_d4) was added to all vials.
The LC column used was Imtakt Intrada amino acid WAA34, 100 × 3 mm; 3 µm, maintained at 35 °C. The system was operated in positive mode. Mobile phases were: 100 mM Ammonium formate in water (mobile phase A) and 95:5:0.3 acetonitrile:water:formic acid (mobile phase B).

LAT1 = molecular target: T1, LAT1 (Homo sapiens, UniProt Q01650); test: [3H]-L-leucine uptake inhibition in MDST8-LAT1 cells; assay type: cell-based; settings: LAT1 transfected cells
T1 construct: expressed in transfected cells; host or cells: MDST8-LAT1 cells
T1 sequence (Q01650 whole entry): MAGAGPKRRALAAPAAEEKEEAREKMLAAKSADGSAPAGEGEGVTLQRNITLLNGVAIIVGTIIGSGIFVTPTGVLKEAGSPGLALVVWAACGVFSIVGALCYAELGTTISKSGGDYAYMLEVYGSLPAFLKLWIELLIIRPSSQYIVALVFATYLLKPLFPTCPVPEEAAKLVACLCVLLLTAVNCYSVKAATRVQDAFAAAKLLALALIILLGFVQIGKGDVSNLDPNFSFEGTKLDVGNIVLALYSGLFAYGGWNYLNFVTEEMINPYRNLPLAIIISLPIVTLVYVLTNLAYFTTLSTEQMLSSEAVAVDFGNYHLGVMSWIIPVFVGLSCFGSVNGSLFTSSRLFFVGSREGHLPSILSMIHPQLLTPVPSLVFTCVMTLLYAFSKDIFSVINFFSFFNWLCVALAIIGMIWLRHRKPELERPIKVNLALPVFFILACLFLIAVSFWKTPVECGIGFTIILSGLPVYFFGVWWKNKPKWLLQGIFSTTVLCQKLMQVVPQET
T1 sequence (P08195 102-630 partner): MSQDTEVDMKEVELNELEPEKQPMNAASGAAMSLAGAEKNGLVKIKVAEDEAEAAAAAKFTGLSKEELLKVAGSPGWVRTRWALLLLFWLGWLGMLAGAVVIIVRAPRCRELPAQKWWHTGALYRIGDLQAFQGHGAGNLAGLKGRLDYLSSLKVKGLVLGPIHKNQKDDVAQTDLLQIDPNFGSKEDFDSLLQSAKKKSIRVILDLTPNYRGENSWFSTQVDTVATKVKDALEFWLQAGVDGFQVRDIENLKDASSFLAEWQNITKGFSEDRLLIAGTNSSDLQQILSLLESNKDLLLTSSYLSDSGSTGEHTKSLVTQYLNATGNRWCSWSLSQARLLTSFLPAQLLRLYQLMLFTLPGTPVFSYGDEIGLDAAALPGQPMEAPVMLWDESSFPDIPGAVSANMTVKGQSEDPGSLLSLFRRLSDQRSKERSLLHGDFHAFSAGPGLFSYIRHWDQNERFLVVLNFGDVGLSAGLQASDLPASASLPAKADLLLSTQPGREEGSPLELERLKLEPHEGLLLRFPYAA
Description: [3H]-L-Leucine uptake assay
[3H]-L-Leucine uptake assay was performed as previously described [Yan et al., 2021]. Cells were seeded in 96-well plates with opaque bottom (Corning, 353296) at 40-60% confluency, allowing them to attach for 48 hours in a fully supplemented media. Cells were preincubated with different concentrations of […]
Solution (HBSS) containing 125 mM choline-Cl, 25 mM HEPES, 4.8 mM KCl, 1.2 mM MgSO4, 1.2 mM KH2PO4, 1.3 mM CaCl2 and 5.6 mM D-glucose (pH 7.4) and further incubated with the same solution for 7 minutes at 37 °C. [3H]-l-Leucine uptake was assessed in the same solution containing 10 nM “hot” [3H]-L-Leucine (60 Ci/mmol) (Anawa, 0140A-1) + 30 μM “cold” L-leucine. In case of 5 μM JPH203, the same procedure was followed without PTX preincubation. After 3 minutes, the solution was removed, and the cells were washed with ice-cold Na+-free HBSS to terminate the uptake. Cells were lysed with scintillation solvent MicroScint-20 (Perkin-Elmer Life Sciences, 6013621) and the radioactivity was measured with a scintillation counter (TopCount NXT, Perkin-Elmer Life Sciences).
*Yan R, Li Y, Müller J, Zhang Y, Singer S, Xia L, Zhong X, Gertsch J, Altmann KH, Zhou Q. Mechanism of substrate transport and inhibition of the human LAT1-4F2hc amino acid transporter. Cell Discov.

Compound: COc1c(OC)c2occc2c2oc(=O)ccc12 [Pimpinellin, pimpinellin]
- decrease of normalized PSD [1]: 81%

Compound: CCCC(CCC)C(=O)O [VPA, valproic acid]
- solubility in aqueous solutions [2]: 1200 µg/mL (≈ 8.32 mM)

Compound: CCCC(CCC)C(=O)O [VPN, sodium valproate]
- efficacy against PTZ-induced seizure-like movements ([3]; VPN 5 mM, 1 h): ~ 80%
- activity of PTZ-treated larvae vs vehicle-PTZ group ([3]; VPN 5 mM, 18 h immersion, p < 0.001): decreased the activity
- locomotor activity without PTZ vs vehicle (zebrafish larvae; VPN 5 mM, 18 h): significant inhibition of the locomotor activity
- % Absorbed ([4]; VPN/VPA 100 µM, 1 h immersion): ~ 6%
- % Absorbed ([4]; VPN/VPA 100 µM, 1 h immersion, listed as VPN/VPA): 6.5%
- % Absorbed ([4]; VPN/VPA 500 µM, 1 h immersion): 2.3%
- % Absorbed ([4]; VPN/VPA 1 mM, 1 h immersion): 3.3%
- % Absorbed ([4]; VPN/VPA 5 mM, 5 min immersion): 0.77%
- % Absorbed ([4]; VPN/VPA 5 mM, 5 min immersion, listed as VPN/VPA): 0.8%
- % Absorbed ([4]; VPN/VPA 5 mM, 30 min immersion): 1.44%
- % Absorbed ([4]; VPN/VPA 5 mM, 30 min immersion, listed as VPN/VPA): 1.4%
- % Absorbed ([4]; VPN/VPA 5 mM, 1 h immersion): 2.52%
- % Absorbed ([4]; VPN/VPA 5 mM, 1 h immersion, listed as VPN/VPA): 2.5%
- % Absorbed ([4]; VPN/VPA 5 mM, 18 h immersion (metabolism)): 0.76% (metabolism)
- % Absorbed ([4]; VPN/VPA 5 mM, without larvae): 100%
- Measured concentration ([4]; VPN/VPA 5 mM, without larvae): 734,333 ± 5859 ng/g and 5092 ± 40.6 µM
- concentration at 1 h ([4]; zebrafish (Danio rerio) larvae, whole-body larvae homogenate, other: immersion in compound-containing medium, 100 µM, Measured concentration in larvae whole-body, VPN/VPA 100 µM, 1 h immersion): 941 ng/g and 6.5 µM
- concentration at 1 h ([4]; zebrafish (Danio rerio) larvae, whole-body larvae homogenate, other: immersion in compound-containing medium, 500 µM, Measured concentration in larvae whole-body, VPN/VPA 500 µM, 1 h immersion): 1680 ng/g and 11.6 µM
- concentration at 1 h ([4]; zebrafish (Danio rerio) larvae, whole-body larvae homogenate, other: immersion in compound-containing medium, 1 mM, Measured concentration in larvae whole-body, VPN/VPA 1 mM, 1 h immersion): 4740 ng/g and 32.9 µM
- concentration at 5 min ([4]; zebrafish (Danio rerio) larvae, whole-body larvae homogenate, other: immersion in compound-containing medium, 5 mM, Measured concentration in larvae whole-body, VPN/VPA 5 mM, 5 min immersion): 5600 ng/g and 38.8 µM
- concentration at 30 min ([4]; zebrafish (Danio rerio) larvae, whole-body larvae homogenate, other: immersion in compound-containing medium, 5 mM, Measured concentration in larvae whole-body, VPN/VPA 5 mM, 30 min immersion): 10400 ng/g and 71.9 µM
- concentration at 1 h ([4]; zebrafish (Danio rerio) larvae, whole-body larvae homogenate, other: immersion in compound-containing medium, 5 mM, Measured concentration in larvae whole-body, VPN/VPA 5 mM, 1 h immersion): 18200 ng/g
- concentration at 18 h ([4]; zebrafish (Danio rerio) larvae, whole-body larvae homogenate, other: immersion in compound-containing medium, 5 mM, Measured concentration in larvae whole-body, VPN/VPA 5 mM, 18 h immersion): 5470 ng/g and 38 µM
- concentration at 1 h ([4]; zebrafish (Danio rerio) larvae, whole-body larvae homogenate, other: immersion in compound-containing medium, 5 mM, concentration in larvae whole-body, VPN 5 mM, 1 h): 18200 ± 400 ng/g
- concentration at 1 h ([4]; zebrafish (Danio rerio) larvae, whole-body larvae homogenate, other: immersion in compound-containing medium, 10 mM, Measured concentration in larvae whole-body, VPN/VPA 10 mM, 1 h immersion): 33900 ng/g and 235 µM
- oral bioavailability [5]: ~ 90%
- therapeutic plasma concentration, total [6]: 300 to 700 µM
- therapeutic plasma concentration, unbound [6]: 30 to 100 µM

Compound: pteryxin [PTX]
- decrease of actinteg values of PTZ-treated larvae ([3]; PTX 10 µM): 37.6%
- decrease of locomotor activity of PTZ-treated larvae ([3]; PTX 10 µM, 18 h immersion): 61.4%
- decrease of actinteg values of PTZ-treated larvae ([3]; PTX 15 µM): 57.6%
- decrease of locomotor activity of PTZ-treated larvae ([3]; PTX 15 µM, 18 h immersion): 73.3%
- decrease of actinteg values of PTZ-treated larvae ([3]; PTX 20 µM): ~ 70% and 70.6%
- decrease of locomotor activity of PTZ-treated larvae ([3]; PTX 20 µM, 18 h immersion): 78.2%
- average movements without PTZ vs vehicle (zebrafish larvae; PTX 5 µM, 1 h): increased the average movements
- locomotor activity without PTZ vs vehicle (zebrafish larvae; PTX 20 µM, 1 h): decreased locomotor activity
- locomotor activity without PTZ vs vehicle (zebrafish larvae; PTX 20 µM, 18 h): significant inhibition of the locomotor activity
- decrease in the PSD values [7]: 99.8%
- decrease of some AA levels vs control [8]: up to 60%
- effect on the LAT1-mediated leucine transport (LAT1): did not show any effect
